“Also recorded” adds a separate entry of the source. Where two headings read alike, the source gives them in different places.
Tests used:
P-glycoprotein (P-gp) = details: cited from earlier work
microtubule = details: cited from earlier work; for Microtubule assembly: 10 µM
[1] = system: metastatic malignant melanoma; details: Phase III, every 3-week treatment schedule; cited from earlier work
mice = details: cited from earlier work
human tumor cell lines = details: variety of human tumor cell lines; cited from earlier work
[2] = system: M109 subcutaneous lung tumor; details: cited from earlier work; for Antitumor efficacy: at MTD; for Tumor AUC of PX fold greater than Taxol: i.v.
tubulin = tubulin (Sus scrofa, UniProt P02554); test: Tubulin polymerization assay; assay type: biochemical
Sequence of tubulin (P02554 whole entry): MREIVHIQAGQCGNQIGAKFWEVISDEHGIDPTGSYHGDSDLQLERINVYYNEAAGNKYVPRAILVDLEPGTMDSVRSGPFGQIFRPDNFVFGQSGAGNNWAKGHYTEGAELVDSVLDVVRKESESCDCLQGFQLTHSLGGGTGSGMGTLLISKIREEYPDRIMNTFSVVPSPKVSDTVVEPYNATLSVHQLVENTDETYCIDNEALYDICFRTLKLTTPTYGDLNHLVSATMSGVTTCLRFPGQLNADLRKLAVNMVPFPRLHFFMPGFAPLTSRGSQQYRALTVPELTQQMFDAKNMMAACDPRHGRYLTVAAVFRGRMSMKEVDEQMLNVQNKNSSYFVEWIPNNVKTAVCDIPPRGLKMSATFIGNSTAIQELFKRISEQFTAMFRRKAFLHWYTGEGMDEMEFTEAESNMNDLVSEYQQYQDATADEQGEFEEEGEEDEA
Sequence of tubulin (P02550 whole entry partner): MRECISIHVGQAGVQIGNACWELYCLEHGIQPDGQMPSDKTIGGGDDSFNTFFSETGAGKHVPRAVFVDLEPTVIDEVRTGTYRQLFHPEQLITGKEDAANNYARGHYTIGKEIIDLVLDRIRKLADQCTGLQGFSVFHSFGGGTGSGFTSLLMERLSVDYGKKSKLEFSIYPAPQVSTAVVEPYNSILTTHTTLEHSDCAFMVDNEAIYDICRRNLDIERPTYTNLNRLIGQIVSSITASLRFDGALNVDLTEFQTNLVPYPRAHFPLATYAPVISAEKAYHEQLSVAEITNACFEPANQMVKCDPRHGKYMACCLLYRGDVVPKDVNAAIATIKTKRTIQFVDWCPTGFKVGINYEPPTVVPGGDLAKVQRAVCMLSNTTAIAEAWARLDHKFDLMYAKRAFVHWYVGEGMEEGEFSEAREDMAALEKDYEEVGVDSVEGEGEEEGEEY

[3] = system: 4T1 mouse mammary carcinoma cells; test: In-vitro cytotoxicity, MTT assay; assay type: cell-based
human MCF-7 cells = details: 72 h incubation; cited from earlier work
[4] = rabbit model; cited from earlier work
HeLa cells = details: cited from earlier work

CC/C=C\C/C=C\C/C=C\C/C=C\C/C=C\C/C=C/CCC(=O)O[C@@H](C(=O)O[C@H]1C[C@@]2(O)[C@@H](OC(=O)c3ccccc3)C3[C@](C)(C(=O)[C@H](OC(C)=O)C(=C1C)C2(C)C)[C@@H](O)C[C@H]1OC[C@@]31OC(C)=O)[C@@H](NC(=O)c1ccccc1)c1ccccc1 (stereo partly drawn) [DHA-PX, docosahexaenoic acid-PX]
P-gp substrate (P-glycoprotein (P-gp)): remains a P-gp substrate
Microtubule assembly (microtubule): not able to assemble microtubule
Microtubule assembly activity (microtubule): does not have microtubule assembly activity
Overall survival [1]: not superior to dacarbazine
MTD fold higher compared to Taxol (mice): 4.4 fold
Cytotoxic concentration range (human tumor cell lines): µM concentration range
Antitumor efficacy [2]: completely eliminated measurable tumors
Tumor AUC of PX fold greater than Taxol ([2]; equimolar dose): 1.71 fold
Tumor AUC of PX fold greater than Taxol ([2]; equitoxic dose): 5.79 fold

CC(=O)O[C@H]1C(=O)[C@@]2(C)[C@H]([C@H](OC(=O)c3ccccc3)[C@]3(O)C[C@H](OC(=O)[C@H](O)[C@@H](NC(=O)c4ccccc4)c4ccccc4)C(C)=C1C3(C)C)[C@]1(OC(C)=O)CO[C@@H]1C[C@@H]2O [PX, Paclitaxel]
Vmax of tubulin polymerization (tubulin; 10 µM, 37°C, 3 mg/ml tubulin, standard control 25.3 ± 3.2): 45.0 ± 3.6 mOD/min
Effect on tubulin polymerization (tubulin; 10 µM, compared to control): could stabilize microtubule proteins
P-gp substrate (P-glycoprotein (P-gp)): substrate of P-glycoprotein
IC50 ([3]; Mus musculus, 4T1, 48 h): 38 ± 1 nM
Cytotoxic concentration range (human tumor cell lines): nM range
Antitumor efficacy [2]: did not result in even partial tumor regression

2’-behenoyl-paclitaxel [Formulation C22-PX]
Effect on tubulin polymerization (tubulin; 5 µM, compared to control): no effect on tubulin polymerization
Effect on tubulin polymerization (tubulin; 10 µM, compared to control): no effect on tubulin polymerization; also recorded: no microtubule activity
Effect on tubulin polymerization (tubulin; 20 µM, compared to control (p < 0.01)): some tubulin polymerization activity
IC50 fold higher than PX ([3]; 4T1 cells): about 8 fold
IC50 ([3]; 4T1 cells, MTT, 48 h): 282 ± 42 nM

CCCCCC=CCC=CCCCCCCCC(=O)OC(C(=O)OC1CC2(O)C(OC(=O)c3ccccc3)C3C4(OC(C)=O)COC4CC(O)C3(C)C(=O)C(OC(C)=O)C(=C1C)C2(C)C)C(NC(=O)c1ccccc1)c1ccccc1 (stereo not drawn) [2’-linoleic acid-PX]
Microtubule assembly (microtubule): not able to assemble microtubule

CCCCCCCCCCCCCCC(Br)C(=O)OC(C(=O)OC1CC2(O)C(OC(=O)c3ccccc3)C3C4(OC(C)=O)COC4CC(O)C3(C)C(=O)C(OC(C)=O)C(=C1C)C2(C)C)C(NC(=O)c1ccccc1)c1ccccc1 (stereo not drawn) [2’-α-bromohexadecanoyl-PX]
Fold less potent compared to PX (human MCF-7 cells): 70 fold

CCCCCCCCC=CCCCCCCCC(=O)OC(C(=O)OC1CC2(O)C(OC(=O)c3ccccc3)C3C4(OC(C)=O)COC4CC(O)C3(C)C(=O)C(OC(C)=O)C(=C1C)C2(C)C)C(NC(=O)c1ccccc1)c1ccccc1 (stereo not drawn) [2’-oleate-PX]
Pharmacokinetics compared to PX formulated in Cremophor EL/Ethanol [4]: significantly greater AUC, higher Cmax, and lower systemic clearance
IC50 (HeLa cells; 24 h incubation, in lipid emulsions): 5500 nM
IC50 (HeLa cells; 48 h incubation): 500 nM
IC50 (HeLa cells; 72 h incubation, in lipid emulsions): 150 nM
IC50 (HeLa cells; 96 h incubation, in lipid emulsions): 100 nM
